From PubChem BioAssay AID2305 (GlaxoSmithKline (GSK), 2010)

The compounds below were run on P. falciparum 3D7 growth, pLDH absorbance (assay: blood-stage malaria parasite growth potency – strain 3D7, dose response (AID 2305)).

Row | SMILES | IC50 [µM]
1 | CC1(C)CCC(C)(C)c2c1ccc(C1CCN(CCCCNC(=O)c3ccc(-c4ccc(C#N)cc4)cc3)CC1)c2OCC(N)=O | 0.42
2 | CS(=O)(=O)c1ccc(CCNCc2ccc(-c3ccc(CN(C(=O)c4ccc(Cl)nc4)C4CCN(Cc5ccccc5)CC4)cc3)nc2)cc1 | 0.8
3 | FC(F)(F)c1ccc2nc(-c3ccc(-c4cccc(CN5CCC(CCN6CCCCC6)CC5)c4)cc3)[nH]c2c1 | 0.15
4 | CC(C)c1ccc(NC(=O)c2ccc(CN3CCCN(Cc4cccc(O)c4)CC3)cc2)cc1 | 0.68
5 | Cc1cc(Nc2cccc(Cl)c2)nc2ccc(NC(=O)c3ccc(=O)[nH]c3)cc12 | 1
6 | CCc1ccc(Cc2cnc3nc(N)nc(N)c3c2C)cc1 | 0.2
7 | CN(C)CCN(C)Cc1ccc(-c2ccc3c(Nc4ccc(F)cc4Cl)ccnc3c2)o1 | 0.12
8 | Cc1csc(NC2=NCCN2)n1 | 0.47
9 | Nc1nccc2ccc(-c3cccnc3)cc12 | 0.42
10 | Cc1cc(NCCC(=O)Nc2ccccc2)nc(NCCc2cccs2)n1 | 0.89
11 | CN1CCN(c2cccc(-c3nnc(-c4cccc(OCC(=O)NCc5ccc(C(F)(F)F)cc5)c4)o3)c2)CC1 | 0.76
12 | CN(C)CCCOc1cccc(CCNCc2cccc(Oc3ccc(Cl)cc3)c2)c1 | 1.01
13 | Nc1nc(N)c2c(ccc3nccc32)[nH]1 | 1.08
14 | CC(C)(C)Oc1ccc(CC2NC3(C(=O)N(Cc4ccc(C(C)(C)C)cc4)c4ccccc43)C3C(=O)N(c4ccc(Br)cc4)C(=O)C23)cc1 (configuration not stated) | 0.72
15 | CCCc1ccc(S(=O)(=O)NC2CCN(C(=O)Nc3ccc(I)cc3)CC2)cc1 | 0.87
16 | CC(=O)Nc1ccc([N+](=O)[O-])c2c(Br)cccc12 | 0.64
17 | OC(CNCCCc1ccccc1)c1cc(OCc2ccccc2)cc(OCc2ccccc2)c1 (configuration not stated) | 0.85
18 | Cc1c2ccc(N(C)c3ccnc(Nc4ccc5c(c4)nc(NC(C)C)n5C)n3)cc2nn1C | 0.16
19 | CN(C)Cc1ccc(-c2ccc(NC(=O)c3ccc4c(=O)n(Cc5ccccc5)cnc4c3)cc2)cc1 | 0.65
20 | CCCCCCN1CCC(NCc2cccc(-n3ccnc3)c2)CC1 | 0.25
21 | N#Cc1cc(C(=O)Nc2ccccc2)c(N)nc1SCC(=O)NC(c1ccccc1)c1cccs1 (configuration not stated) | 0.61
22 | CCn1cc2c3c(cc(C(=O)N[C@@H](Cc4ccccc4)[C@H](O)CNCc4cccc(OC)c4)cc31)N(C)S(=O)(=O)CC2 | 0.67
23 | CC(c1cccc(Nc2nccc(-c3c(-c4cccc(NC(=O)c5c(F)cccc5F)c4)nn4ncccc34)n2)c1)S(C)(=O)=O (configuration not stated) | 0.05
24 | Cc1cccc2[nH]c(-c3ccc(-c4ccc(CNCCCNS(C)(=O)=O)cc4)s3)nc12 | 1
25 | COc1cc2c(cc1OCCN1CCC(N)CC1)N(C(=O)/C=C/c1ccccc1Cl)CC2 | 1.12

Row | SMILES | IC50 [µM]
26 | CC(=O)Nc1ccc(S(=O)(=O)Nc2ccc(Nc3nc(C)cc(N(C)C)n3)cc2)cc1 | 1.16
27 | Cc1ccc2nc3c(cc(C(=O)NCCc4ccccc4)c(=N)n3CCCOC(C)C)c(=O)n2c1 | 0.89
28 | CNCCN(C)C(=O)Oc1c(Cl)c(C)nc(C)c1-c1ccc(Oc2ccc(OC(F)(F)F)cc2)cc1 | 0.13
29 | Cc1c[nH]c2ccc(/C=C/C(=O)NC3CCC(CCN4CCc5ccc(C#N)cc5CC4)CC3)cc12 (configuration not stated) | 0.83
30 | Nc1ncnc2cc(-c3cccc(NC(=O)Nc4ccccc4)c3)sc12 | 0.71
31 | CCOc1c(CNCCCNc2cc(=O)c3ccccc3[nH]2)cc(I)cc1C(C)(C)C | 0.7
32 | CCCNc1ccc2nccc(CCN3CCC(NCc4ccc5c(n4)NC(=O)CS5)CC3)c2n1 | 0.72
33 | O=C(CCc1ccccc1)NC(c1ccc(Cl)cc1)c1ccc2cccnc2c1O (configuration not stated) | 0.85
34 | Oc1c(CN2CCC(Cc3ccccc3)CC2)cc(Cl)c2cccnc12 | 0.88
35 | CC[C@]1(C)C[C@@H](NC(=O)NC(=O)c2ccc(OC)cc2)[C@]2(C)[C@H](C)CC[C@]3(CCC(=O)[C@H]32)[C@@H](C)[C@@H]1OC(=O)NC(=O)c1ccc(OC)cc1 | 0.99
36 | N#CC1(c2ccccc2)CCN(c2nc(NCCCN3CCCC3=O)nc(N3CCCC4CCCCC43)n2)CC1 (configuration not stated) | 0.86
37 | Cc1cc(NC(=O)c2cc(Br)ccc2Cl)n(-c2nc(C)c(C)c(=O)[nH]2)n1 | 1.13
38 | N=C(N)c1ccc(NN=Cc2ccc(Oc3ccc(C(=N)N)cc3)cc2)cc1 | 0.09
39 | O=C(Cn1c(CCc2cccc(F)c2F)cc(=O)c2ccccc21)N(Cc1ccc(-c2ccc(C(F)(F)F)cc2)cc1)C1CCN(CCN2CCOCC2)CC1 | 0.72
40 | CS(=O)(=O)c1cccc(-c2cnc(N)c3cc(-c4ccc5c(c4)OCO5)ccc23)c1 | 1.04
41 | CCCCCCCCOc1c(OCC)cc(Cc2cnc(N)nc2N)cc1OCC | 1.53
42 | O=C(NC1CCN(CC2(c3ccc(Cl)cc3)CCC2)CC1)c1cscn1 | 0.53
43 | COc1ccc(Nc2ncc3c(-c4cccc(NC(=O)Cc5ccc(F)cc5)c4)c[nH]c3n2)cc1OC | 0.59
44 | CCCc1cc(Cc2cnc(N)nc2N)cc2c1OC(C)(C)C2 | 1.08
45 | Cn1cncc1-c1ccc2ncnc(Nc3ccc(OCc4ccccc4)cc3)c2c1 | 1.34
46 | COc1ccc(O)c(CN2CCN(c3cc(C)ccc3C)CC2)c1 | 1.01
47 | CN(CCN)Cc1cccc(-c2cccc(-c3nc4ccc(F)cc4[nH]3)c2)c1 | 0.79
48 | CN(CC(=O)Nc1cc(C(F)(F)F)ccc1-n1cncn1)Cc1nc2ccccc2s1 | 1.41
49 | CC1(C)N=C(N)N=C(N)C1c1ccc(Cl)c(Cl)c1 (configuration not stated) | 0.03
50 | CS(=O)(=O)CCNCc1nc(-c2ccc3ncnc(Nc4ccc(OCc5ccccc5)c(Cl)c4)c3c2)cs1 | 0.8

Row | SMILES | IC50 [µM]
51 | COc1ccc(S(=O)(=O)NCCC2CCN(CCCCCNC(=O)C=Cc3ccc(Cl)c(Cl)c3)CC2)cc1 | 0.96
52 | O=c1ccccn1CCCC1CCCCN1 (configuration not stated) | 0.81
53 | O=C(/C=C/c1ccc(Cl)c(Cl)c1)NCCCCCN1CCC(NC(=O)c2cc(Cl)ccc2F)CC1 | 1.16
54 | CC(Cc1ccc(NC(=O)c2ccc(NCCc3ccccc3)cc2)cc1)NCCc1cccc(Cl)c1 (configuration not stated) | 0.85
55 | CCc1ccc(C2CCN(CCCCNC(=O)c3ccc(-c4ccc(C(F)(F)F)cc4)cc3)CC2)c(OCCO)c1 | 0.41
56 | O=C(Nc1cccc(-c2ccc(-c3nc4ccccc4[nH]3)cc2)c1)c1cccnc1 | 1.04
57 | CCCCCCN(CCCCCC)CCCCNc1c2ccc(Cl)cc2nc2ccc(OC)cc12 | 0.54
58 | COC(=O)CCCCOc1cc(Cc2cnc(N)nc2N)cc(OC)c1OC | 0.17
59 | Cc1ccc2c(=O)cc(CCc3cccc(F)c3F)n(CC(=O)N(Cc3ccc(-c4ccc(C(F)(F)F)cc4)cc3)C3CCN(C)CC3)c2n1 | 1.26
60 | CN1CCN(CCCCCCNc2c3ccccc3nc3ccccc23)CC1 | 0.72
61 | CC(CN1CCN(C)CC1)C(=O)Nc1cccc(-c2ccc(-c3nc4ccccc4[nH]3)s2)c1 (configuration not stated) | 0.63
62 | Cc1[nH]c2cc(F)ccc2c1C1=CCN(CCCCC2(C)C(=O)Nc3c(F)cccc32)CC1 (configuration not stated) | 0.4
63 | Clc1cc(Nc2ncnc3sc(C#C[C@H]4CCCN4)cc23)ccc1OCc1cccnc1Cl | 0.57
64 | COc1c(Br)cc(Br)cc1-c1ccc(CN2CC3CCC2CC3)[nH]1 | 0.69
65 | CC(NC(=O)c1ccc(O)c(-c2ccc(Cl)c(Cl)c2)c1)C(=O)NCCN1CCCCC1 (configuration not stated) | 0.87
66 | Cc1cc2nc(-c3ccc(/C=C/C(=O)NC4CCCCC4)cc3)[nH]c2cc1C | 1.01
67 | O=C(Nc1ccc(C(F)(F)F)cc1)c1cccc(S(=O)(=O)NC2CCN(CC3CCCCC3)CC2)c1 | 0.85
68 | CN(c1ccc(NC(=O)c2ccc(F)cc2)cc1)C1CCN(Cc2cccc(F)c2)C1 (configuration not stated) | 1.41
69 | CO/C(=C\C=C\c1cc2cc(Cl)c(Cl)cc2[nH]1)C(=O)NCCCN1CCN(c2cccc(CCO)c2)CC1 | 0.72
70 | CCC(C)(CC)C(=O)n1ncc2c3c(N)nc(N)nc3ccc21 | 0.01
71 | CCCN(CCC)C(=O)c1cc(C(=O)N[C@@H](Cc2ccccc2)[C@H](O)CNCc2cccc(C(F)(F)F)c2)cc(N2CCCCS2(=O)=O)c1 | 0.88
72 | Cc1nnc2c(NC(=O)/C=C/c3ccc(OC(F)(F)F)cc3)cc3cc(Cl)ccc3n12 | 0.17
73 | Cc1cccc2[nH]c(-c3ccc(-c4ccc(CNCc5cccc(N)c5)cc4)cc3)nc12 | 0.57
74 | O=C(/C=C/c1ccc(Cl)c(Cl)c1)NCCCCCN1CCC(NC(=O)Nc2ccc(F)cc2F)CC1 | 0.74
75 | CC1(C)N=C(N)N=C(N)N1c1ccc(Oc2ccc(Cl)cc2)c(Cl)c1 | 0.08

Row | SMILES | IC50 [µM]
76 | c1ccc2sc(Sc3ncnc4sccc34)nc2c1 | 0.73
77 | COc1cc(NCC(CN)Cc2ccc3c(c2)OCO3)nc2ccccc12 (configuration not stated) | 0.82
78 | COc1ccccc1N1CCN(CCCCNC(=O)c2ccc(NC(=O)c3cc4ccccc4o3)cc2)CC1 | 0.98
79 | CC(C)N1CCN(c2ccc(OCCCN3CCN(c4cccc(Cl)c4Cl)CC3)c(C(F)(F)F)c2)CC1 | 0.81
80 | CC1CCC(C[C@@H](C(=O)N[C@H](C(=O)Nc2nccs2)[C@@H](C)O)[C@H](CCC(F)(F)F)N(O)C=O)CC1 (some centres not stated) | 0.54
81 | COc1ccc(Nc2nc(NCc3cccnc3)cc(-c3ccc(OC)cc3)n2)cc1 | 1.4
82 | NC1=NC(CCc2ccccc2)N(c2ccc(Cl)cc2)C(N)=N1 (configuration not stated) | 0.04
83 | CCCCn1c(=N)c(C(=O)NCc2cccnc2)cc2c(=O)n3cccc(C)c3nc21 | 0.74
84 | c1ccc2c(c1)ncn2-c1ccnc(Nc2ccncc2)n1 | 0.65
85 | O=C(C=Cc1ccc(Cl)c(Cl)c1)NCCCCCN1CCC(CCNS(=O)(=O)c2ccc(F)cc2)CC1 | 1.09
86 | CNC(=O)COc1cc(C)c(C2CCN(CCCCNC(=O)c3ccc(-c4ccc(C(F)(F)F)cc4)cc3)CC2)cc1C | 0.87
87 | COc1cc2nc(N3CCC(CNC(=O)c4ccc(-c5ccc(C(=O)N(C)C)cc5O)cc4)CC3)nc(N)c2cc1OC | 0.28
88 | CN(CCN)Cc1ccc(-c2ccc(-c3nc4ccc(F)cc4[nH]3)s2)cc1 | 1.07
89 | CC(C)(C)c1nn(-c2ccccc2)c2[nH]c(=O)c(CNCc3ccccc3)cc12 | 1.05
90 | Oc1c(Br)cc2oc3c(c2c1CNCc1ccccc1)CCCC3 | 0.96
91 | Cc1cc(C(=O)CN2C(=O)NC(C)(c3ccc4ccccc4c3)C2=O)c(C)n1Cc1ccco1 (configuration not stated) | 0.66
92 | CCCCCn1c(Sc2ccc(C#N)c([N+](=O)[O-])c2)nnc1-c1ccc(Cl)cc1 | 1.08
93 | O=S1(=O)NCc2ccc(Nc3nccc(Nc4ccc5c(cnn5Cc5ccccc5)c4)n3)cc21 | 0.75
94 | OCc1c(Cl)cc(Cl)cc1CNCCCNc1nc2ccccc2[nH]1 | 0.74
95 | CCOc1ccc(C2CCN(CCCCNC(=O)c3ccc(NC(=O)c4ccc(Cl)cc4)cc3)CC2)c(OCC)c1 | 0.68
96 | Nc1c2c(nc3ccc(C(=O)Nc4ccc(Br)cc4)cc13)CCCC2 | 0.15
97 | NC1CCN(Cc2ccc(-c3cccc(-c4nc5ccccc5[nH]4)c3)cc2)C1 (configuration not stated) | 0.85
